Data reported in patent US20020146424A1, “Polyphenolics for enhancing endothelial cell-mediated fibrinolysis” (priority 2001, published 2002).

Legend:
cultured HUVECs = assay: Surface-localized fibrinolytic activity (125I-labeled Glu-Pmg conversion to plasmin) in cultured HUVECs; type: cell-based, human; settings: 1 hour preincubation; for surface-localized fibrinolytic activity, maximum increase: 0.001 μM, control 38.0 pmol/well; for surface-localized fibrinolytic activity, maximum increase / surface-localized fibrinolytic activity, peak: 24 hours after induction; for increase in fibrinolytic activity compared to control: measured 24 hours later; for surface-localized fibrinolytic activity, peak: 10 μM, control 38.0±4.0
Experimental: Human umbilical vein ECs (HUVECs) were obtained from fresh (discarded) umbilical cords by mild collagenase treatment (type 1, CLS) by the method of Jaffe et al (J. […] ECs were seeded into human fibronectin-coated Petri dishes (9.6 cm^2) or plastic flasks (25 cm^2) and grown to confluency. Cultures were maintained at 37° C. in a humidified 95% air, 5% CO2 atmosphere and re-fed every 48 hours with complete culture medium consisting of Medium 199 (M199) powdered medium containing L-glutamine and Earle's salt, 0.025 M HEPES buffer (pH 7.4), 0.0002 M fresh L-glutamine, 100 units/ml of penicillin, 100 μg/ml streptomycin, 10% heat-deactivated FBS, 90 μg/ml heparin and 50 μg/ml of unpurified ECGF. […] Cells were routinely counted using phase microscopy and a 0.5 mm×0.5 mm counting reticule. Individual HUVEC cultures were routinely examined for their purity and characterized as ECs by their uptake of Dil-Ac-LDL and typical monlayer “cobblestone” tight-packing morphology. Only individual cultures with 95% identifiable ECs were used in these studies. All alcohol induction studies were conducted with confluent cultured HUVECs (in 96-well plates) preincubated in the absence/presence of varying concentration of alcohol (0-0.1%, v/v) for one hour at 37° C., washed two times in DBPS, re-fed with complete 10% serum containing medium and then further incubated at 37° C. in the absence of alcohol for 24 hours. surface-localized fibrinolytic activity was measured as the conversion of ^125-labeled Glu-Pmg levels after 24 hours. All studies were conducted with confluent cultured HUVECs. The cells were preincubated in the absence/presence of varying dilutions (1:1000, 1:500, 1:250, 1:125, 1:62.5) of red wine, de-alcoholized red wine or grape juice for 1 hour at 37° C., washed two times with DPBS, re-fed with complete 10% serum-containing medium, and then further incubated at 37° C. in the absence of these compounds for 24 hours. Surface-localized fibrinolytic activity was measured as the conversion of ^125-labeled Glu-Pmg levels after 24 hours. All polyphenolic induction studies were conducted with confluent cultured HUVECs (in 96-well plates). The cells were preincubated in the absence/presence of varying concentrations (0.001-10 μM) of catechin, epicatechin, quercetin or resveratrol for 1 hour at 37° C., washed two times with DPBS, re-fed with complete 10% serum-containing medium, and then further incubated at 37° C. in the absence of these compounds for 24 hours. Surface-localized fibrinolytic activity was measured by the direct conversion of cell-bound ^125I-labeled Glu-Pmg hours after the initial induction period. […] The generation of either ^125I-labeled plasmin Mr 20-kDa light or Mr 83-kDa heavy chain formation was quantitated by phosphorimaging autoradiography after SDS-PAGE under reduced conditions. […] The cultures were then placed in a water bath at 37° C. to initiate the receptor-bound endogenous PA-mediated conversion of ^125I labeled Glu-Pmg to ^125I-labeled plasmin. Reactions were stopped after 1 and 10 minutes by the rapid addition of 40 μl of hot (56° C.) solubilizing buffer (4% sodium dodecyl sulfate (SDS), 10% glycerol and 0.2M Tris-HCl, pH 6.8). The total solubilized contents of each well containing generated ^125I-labeled plasmin were removed and reduced by the addition of 5% B-mercaptoethanol and boiling for 5 minutes. […] The radioactivity content of either the ^125I-labeled plasmin light- or heavy-chains was determined by quantitative phosphorimaging autoradiography. After electrophoresis, gels were dried and exposed in phosphorimaging cassettes for 16-18 hours. The amount of remaining ^125I-labeled Glu-Pmg and newly generated ^125I-labeled Mr 20-kDa plasmin light chain in each individual gel was quantitated by measuring the radioactivity content in each band by phosphorimaging autoradiography, using a Molecular Dynamics Series […] Phosphorimager in combination with ImageQuant software. […]

t-PA mRNA = t-PA mRNA expression in rat aortic endothelium by in situ hybridization after gavage; type: in vivo, Sprague Dawley rats; settings: 6 hours after gavage; catechin 0.495, epicatechin 0.224, quercetin 0.033, resveratrol 0.0033 mg/kg; ethanol 1.25% v/v
Experimental: (§1) Rats used in in vivo studies were Sprague Dawley rats weighing 250 to 300 grams.
For in vivo studies, 18 male Sprague Dawley rats, 250-300 g, were intubated with Popper feeding tubes (20 gauge, 1.5 inches). The control group of three rats were gavaged with PBS in a final volume of 1 ml. Five experimental groups with three rats per groups were gavaged with 1 ml of PBS containing either individual phenolic (catechin, 0.495; epicatechin, 0.224; quercetin, 0.033; and resveratrol, 0.0033 mg/kg body weight), or ethanol 1.25% v/v, for final 0.05% blood level. These doses of phenolics and ethanol are equivalent, on a per kg basis, to the amount consumed in about 2 glasses (25 ml) of red wine by a 70 kg adult. The t-PA and u-PA mRNA expression was analyzed at 6 hours after treatment, when the rats were anesthetized with ketamine/rompin. The thoracic aorta was perfusion-fixed and paraffin embedded to evaluate the effects of ethanol and individual phenolics on the induction of t-PA and u-PA mRNA expression in vivo in the aortic endothelium using in situ hybridization using riboprobes.
To insure that the t-PA and u-PA sense and antisense riboprobes were specific for their respective mRNAs in tissue sections, the sequence-verified riboprobes were hybridized with purified rat liver RNA, rich in t-PA and u-PA mRNA.

PAI-1 mRNA = PAI-1 mRNA expression in rat thoracic aorta endothelial cells by in situ hybridization after gavage; type: in vivo; settings: 6 hours after gavage; catechin 0.495, epicatechin 0.224, quercetin 0.033, resveratrol 0.0033 mg/kg; ethanol 1.25% v/v
Experimental: as §1
In in vivo studies of rat thoracic aorta, eighteen male rats were treated by gavage as indicated above. One control group of three rats was gavaged with 1 ml of saline. Five experimental groups with three rats per group were then gavaged with 1 ml saline containing one of the following: (i) 1.25% (v/v) ethanol, (i) 0.495 mg catechin per kg body weight, (iii) 0.224 mg epicatechin per kg body weight, (iv) 0.033 mg quercetin per kg body weight, or (v) 0.0033 mg resveratrol per kg body weight.
At 3 and 6 hours following gavage, the animals were anesthetized with ketamine/rompin (10 and 1.5 mg/100 g body weight, respectively). The portal vein was cannulated and the vasculature perfused with cold, heparinized saline for 5 minutes to remove blood. […] The thoracic aorta was perfused-fixed and paraffin embedded to evaluate the short-term effects of alcohol/phenolics on PA1-I mRNA expression using in situ hybridization techniques.

Compound	surface-localized fibrinolytic activity, maximum increase (cultured HUVECs)	increase in fibrinolytic activity compared to control (cultured HUVECs; 0.05% (v/v) ethanol, p=0.05)	increase in fibrinolytic activity compared to control (cultured HUVECs; 0.1% (v/v) ethanol, p=0.0055)	t-PA mRNA chromogenic signal intensity (antisense riboprobe) in aortic tissue sections vs PBS-treated animals (t-PA mRNA)	expression of PAI-1 mRNA in endothelium of thoracic aorta (PAI-1 mRNA)	surface-localized fibrinolytic activity, peak (cultured HUVECs)
Oc1cc(O)c2c(c1)O[C@H](c1ccc(O)c(O)c1)[C@H](O)C2 [epicatechin]	89.0±4.0 pmol/well					
CCO [ethanol, reference compound]		about 1.5 fold	about 3 fold	more chromogenic signal intensity	significant decrease	
O=c1c(O)c(-c2ccc(O)c(O)c2)oc2cc(O)cc(O)c12 [quercetin]				more chromogenic signal intensity	markedly reduced	64.0±6.0
Oc1ccc(C=Cc2cc(O)cc(O)c2)cc1 [resveratrol]				more chromogenic signal intensity	markedly reduced	55.0±6.0
catechin	91.5±5.0 pmol/well			more chromogenic signal intensity	markedly reduced	
